Results reported in ChEMBL document CHEMBL4715829, “Heterodimeric Rifampicin-Tobramycin conjugates break intrinsic resistance of Pseudomonas aeruginosa to doxycycline and chloramphenicol in vitro and in a Galleria mellonella in vivo model” (Eur J Med Chem, 2019).

Experiments:
Pseudomonas aeruginosa = assay: Antibacterial activity against Pseudomonas aeruginosa 260-97103 infected in Galleria mellonella larvae assessed as survival of larvae up to 50 mg/kg measured after 24 hrs relative to control; type: functional, organism-based; conditions: dose mg/kg <=50, time 24.0 hrs
[1] = Toxicity in Galleria mellonella larvae assessed as larval […] at 100 mg/kg measured after 24 hrs; type: organism-based; conditions: in vivo
[2] = Cytotoxicity against human HepG2 cells assessed as cell viability at 12 uM incubated for 48 hrs by prestoblue assay; type: cell-based; conditions: read-out: Activity
[3] = Cytotoxicity against human HEK293 cells assessed as cell viability at 12 uM incubated for 48 hrs by prestoblue assay; type: cell-based; conditions: read-out: Activity

COLISTIN
Survival (Pseudomonas aeruginosa): > 50%

C[C@@H](O)[C@H]1C(=O)N2C(C(=O)O)=C(S[C@@H]3CN[C@H](C(=O)N(C)C)C3)[C@H](C)[C@H]12 [MEROPENEM]
mortality at 24 h [1]: 100%

COc1cccc2c1C(=O)c1c(O)c3c(c(O)c1C2=O)C[C@@](O)(C(=O)CO)C[C@@H]3O[C@H]1C[C@H](N)[C@H](O)[C@H](C)O1 [DOXORUBICIN]
viability at 48 h, 12 µM [2]: < 10% | viability at 48 h, 12 µM [3]: < 10%
